The subject of series [1] is P. berghei. The series is described as follows: P. berghei mouse model, 4 day Peters' test. It counts as in vivo, Plasmodium berghei (mice). The method, then:
The animal experiments against P. berghei were carried out at the Swiss Tropical and Public Health Institute adhering to local and national regulations of laboratory animal welfare in Switzerland (awarded permission no. BL530). Protocols are regularly reviewed and revised following approval by the local authority (Amt für Lebensmittelsicherheit and Veterinärwesen Basel-Land). Female mice infected with GFP-expressing P. berghei (ANKA strain, donated by A. P. Waters and C. J. Janse, Leiden University, The Netherlands) were analyzed for in vivo efficacy of 7e and 8a as described previously.[18],[19] Parasitemia was determined using flow cytometry with a detection limit of 1 parasite in 1000 erythrocytes. Compound activity was calculated as the difference between the mean parasitemia for the control and treated groups (n = 3, each) expressed relative to the control group. 7e and 8a were suspended in 70/30 Tween 80/ethanol, diluted 10-fold with water and administered orally 4, 24, 48, and 72 h after infection. 7e was analyzed at 30, 10, and 3 mg kg^–1, 8a at 50, and 10 mg kg^–1. In vivo efficacy against P. falciparum was conducted at The Art of Discovery, TAD, Bizkaia, Spain, according to the previously described standard assay.[16],[17]

Series [2] is described as follows: Microsomal clearance and half-life. In kind it is in vitro ADME, human. The conditions noted are these: for human liver microsomes Clint / half-life at 1 µM: 1 μM compound, 0.4 mg mL^–1 protein; for half-life at 1 µM: human, pooled human liver microsomes, pH 7.4, read-out: human liver microsomes t1/2. The method, then: (§1) Clearance, half-life and plasma protein binding were assayed at TGC LifeScience, Kolkata, India, as described before.[36] Test compounds were incubated in duplicate in 96-well plates at 1 μM concentration with pooled human liver microsomes in 0.1 M phosphate buffer, pH 7.4 (0.4 mg mL^–1 final protein concentration; XenoTech, Lenexa, KS) in the presence and absence of 1 mM NADPH. Metabolism reactions were stopped by addition of 300 μL of ice-cold acetonitrile containing carbamazepine at 0.0236 μg mL^–1 as an internal standard, collection and analysis of the supernatant by LC–MS/MS (Agilent Rapid Resolution HPLC, AB SCIEX 4500 MS). The relative loss of the test compound over time was used to determine the first order rate constant for calculation of the in vitro intrinsic clearance and half-life.[37] Plasma protein binding was determined by ultracentrifugation from pooled human plasma spiked with 5 μM test compound. Aliquots were transferred immediately (total plasma concentration) or after 1 h at 37 °C (protein bound fraction) to ice-cold acetonitrile containing 0.0236 μg mL^–1 carbamazepine as an internal standard, ultracentrifuged for 4 h at 37 °C (Beckman Optima L-80XP), and analyzed by LC–MS/MS (Agilent Rapid Resolution HPLC, AB SCIEX 4500 QTRAP MS).
For orientation: Liver microsomes are vesicles of endoplasmic reticulum, rich in cytochrome P450 enzymes.

Series [3] relates to albumin. Nature of the series: Plasma protein (albumin) binding by ultracentrifugation. It counts as in vitro ADME. The following applies: pooled human plasma; for albumin binding: 5 μM. On the procedure:
as §1

Series [4] concerns the target T1, PfFNT G107S (Plasmodium falciparum, UniProt O77389, G107S).
T1 construct: expressed in transfected cells; host or cells: Saccharomyces cerevisiae (yeast transport assay; strain as for wild type, inferred from the shared method)
T1 sequence (O77389 1-309 G107S): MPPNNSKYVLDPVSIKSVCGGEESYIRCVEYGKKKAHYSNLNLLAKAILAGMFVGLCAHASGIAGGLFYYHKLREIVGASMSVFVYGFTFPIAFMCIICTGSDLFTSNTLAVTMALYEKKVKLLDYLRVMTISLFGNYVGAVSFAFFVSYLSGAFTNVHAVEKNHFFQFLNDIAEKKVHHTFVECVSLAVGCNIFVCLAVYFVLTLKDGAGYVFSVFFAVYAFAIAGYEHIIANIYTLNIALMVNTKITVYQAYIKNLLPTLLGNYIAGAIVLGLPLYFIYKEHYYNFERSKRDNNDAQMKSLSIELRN
The series is described as follows: Yeast-based 14C-lactate transport assay, PfFNT G107S resistance mutant. It counts as cell-based. On the procedure: Lactate transport functionality of PfFNT was assayed as described before.[4] Briefly, Saccharomyces cerevisiae W303-1A jen1Δady2Δcells[32] (MATa, can1-100, ade2-loc, his3-11-15, leu2-3,-112, trp1-1-1, ura3-1, jen1::kanMX4, ady2::hphMX4) kindly provided by M. Casal expressing PfFNT was grown at 29 °C to an OD600 of 1 (±0.1). Harvested cells were resuspended to an OD600 of 50 (±5) in 50 mM HEPES/Tris, pH 6.8 (±0.1). 10–15 min prior to the assay, 80 μL of yeast suspension were added to 1 μL of DMSO with or without inhibitor in a 1.5 mL reaction tube at 18 °C. Twenty μL of L-lactate solution spiked with [1-^14C]-L-lactate (Hartmann Analytic) was added yielding a 1 mM inward gradient with 0.04 μCi label. Transport was stopped after 30 s by abrupt dilution with 1 mL of ice-cold water, vacuum filtration via GF/C filter membranes (Whatman), and washing with 7 mL of ice-cold water. The radio label was analyzed by liquid scintillation counting in 3 mL of scintillation cocktail (Rotiszint eco plus, Carl Roth) using a Packard TriCarb 2900 TR (PerkinElmer Inc.).
Transport assays in yeast were done in triplicate biological replicates. At least nine technical replicates were measured around the IC50 value, concentrations with no or full inhibition were determined from at least three technical replicates. EC50-values were determined from 2 to 4 biological replicates. IC50 and EC50 curves were fitted by the Hill equation with variable slope (Graph Pad Prism 10). Error bars denote ± SEM (for n ≥ 3) or ± range (for n = 2). For the EC50-value of 7a the error of the fitting of the curve is given. Cytotoxicity was determined from biological triplicates; error is shown as SEM.

For series [5], the system named is HEK293 cells. In kind it is cell-based. The conditions noted are these: human. On the procedure: (§2) HEK293T and HepG2 cells were precultured in Dulbecco’s modified Eagle medium with 10% fetal bovine serum (FBS, Gibco, #10270106) in 96-well plates (Sarstedt, TC-treated, #83.3924) at a density of 20,000 cells per well. For ATP quantification, commercial CellTiterGlo was used according to the manufacturer’s instructions. For the resazurin assay, the culture medium was removed, and the cells were incubated in 120 μL of a 66 μM resazurin solution in PBS (SigmaAldrich, #R7017) at 37 °C for 2 h, for fluorescence read-out (λex/λem = 544/590 nm) using a microplate reader (Spark, Tecan Group). Nuclei were counted by microscopy (ImageXpress MicroXL, Molecular Devices) after fixation with 4% paraformaldehyde in PBS, and 15 min incubation at room temperature with Hoechst33342. Quantification was done using the “Cell Proliferation High-Throughput” algorithm (MetaXpress Software, Molecular Devices). All values were normalized to vehicle control (DMSO).

For series [6], the system named is HepG2 cells. In kind it is cell-based. The following applies: human. On the procedure:
as §2

Where [7] appears, read: oral 10 mg kg^–1 day^–1, four consecutive days.

Regarding `CCCNc1ccc(C(=O)/C=C(\O)C(F)(F)C(F)(F)F)cn1` [7e, 4,4,5,5,5-Pentafluoro-3-hydroxy-1-(6-(propylamino)pyridin-3-yl)pent-2-en-1-one], the “activity (reduction of parasitemia relative to untreated)” value in series [1] (oral 3 mg kg^–1 day^–1, four consecutive days) came to 3.5%; in series [1] (setting [7]) it was 15.4%; in series [1] (oral 30 mg kg^–1 day^–1, four consecutive days), 34.2%. In series [2], the “human liver microsomes Clint” value is reported as 462.00 mL min^–1 kg^–1. In addition, the half-life at 1 µM in series [2] turned out to be 0.05 h. The “unbound fraction in plasma” value in series [3] is 1.54%. In series [3], this compound gave an albumin binding of 98.46%. In addition, the IC50 – broadly, the concentration needed to halve the response being measured – in series [4] was 0.63 µM. In addition, the “concentration above which nuclei count (proliferation) starts to decline slightly” value (from here on “concentration above which nuclei count”) in series [5] and in series [6] was “above 10 μM” in each case.
Consider `CC(=O)Nc1ccc(C(=O)/C=C(\O)C(F)(F)C(F)(F)F)cn1` [8a, N-[5-(4,4,5,5,5-Pentafluoro-3-hydroxypent-2-enoyl)pyridin-2-yl]acetamide], for which, in series [1] (setting [7]), the “activity (reduction of parasitemia relative to untreated)” value was 76.0%. Further, the “activity (parasites cleared)” value in series [1] (oral 50 mg kg^–1 day^–1, four consecutive days) turned out to be 99.7%. For the same compound, in series [2], the “human liver microsomes Clint” value was determined as 10.64 mL min^–1 kg^–1 and the half-life at 1 µM is 2.17 h. Also, the “microsomal clearance, times faster than that of 2” value in series [2] (human liver microsomes) came out at 2.7 times. In series [3], the “unbound fraction in plasma” value was 6.31% and the albumin binding is 93.69%. In series [4], this compound gave an IC50 of 12 µM. The “concentration above which nuclei count” value in series [5] is listed as “above 10 μM”. Besides, in series [6], the “concentration above which nuclei count” value is given as “above 10 μM”.

For the origin of these results see PMC11513924, “Addressing the Intracellular Vestibule of the Plasmodial Lactate Transporter PfFNT by p-Substituted Inhibitors Amplifies In Vitro Activity” (Journal of Medicinal Chemistry, 2024).
